{"source": "patent US6261760A", "about": "“Regulation of the cell cycle by sterols” (priority 1999, dated 2001)", "key": {"[1]": {"tested_on": "normal human skin fibroblasts", "assay": "Cell synchronization by aphidicolin (flow cytometry)", "type": "cell-based", "description": "Normal human skin fibroblasts were cultured in 10% fetal calf serum in Dulbecco's modified Eagles medium (DMEM). […] After 3 days, dishes were incubated with aphidicolin (4 μg/ml)(CalBiochem, San Diego, Calif.) to inhibit DNA polymerase, leading to cell arrest immediately before S-phase (Tobey et al. (1988) Expt. Cell Res. […]). After 24 h incubation with aphidicolin, the inhibitor was removed for a further 12 h, then restored for a `double block` at 8 μg/ml for a further 24 h (Sourlingas et al. (1996) Anal. Biochem. 234:104-107). After final removal from inhibitor into 10% serum-DME medium, the cells during incubation over the next 32 h at 37° C. […]\nAfter 3 days, dishes were incubated with aphidicolin (4 μg/ml)(CalBiochem, San Diego, Calif.) to inhibit DNA polymerase, leading to cell arrest immediately prior to DNA synthesis (S-phase) (Tobey et al. (1988) Exptl. Cell Res. 179: 400-416, Sourlingas and Sekeri-Pataryas (1996) Anal. Biochem. 234: 104-107.). […] Cell synchronization was assessed by flow cytometry using the cell permeable stain Hoechst 33342 (Molecular Probes, Eugene, Oreg.)(Haas-Kogan et al. (1995) EMBO J. 14: 461-472.). […] Samples were analysed on a FACStar Plus (Becton Dickinson, San Jose, Calif.). Data was analysed using Lysis II software (Becton Dickinson). […]"}, "[2]": {"tested_on": "intracellular FC transport to the cell surface in fibroblast monolayers", "assay": "Transfer of intracellular 3H-FC to the cell surface (cholesterol oxidase)", "type": "cell-based, human", "settings": "in words", "description": "This assay utilized the finding (see Example 1) that only FC in the caveolar fraction of the plasma membrane fraction was modified by cholesterol oxidase in unfixed fibroblast monolayers.\nThe rate at which intracellular LDL-derived ^3 H-FC became accessible at the cell surface was measured as follows. Cell monolayers were labeled with ^3 H-FC LDL under the conditions shown for each experiment. Unbound and adsorbed LDL were removed as described above. In some experiments metabolic inhibitors of different transport steps were then added for 30 min at 15° C. […] Cholesterol oxidase (Boehringer-Manheim, Indianapolis, Ind., USA) was added in PBS to a final concentration of 1 U ml^-1. Incubation was for 4 h at 0° C. The cells were washed with ice-cold PBS, and extracted with 0.1 N NAOH. Cell total lipid was extracted with chloroform-methanol (1:1 v/v). […] .\nFibroblast monolayers were prelabeled with FC-labeled LDL for 2 min at 31° C. Medium and surface-bound labeled LDL were removed as described above. The cells were incubated with inhibitors of intracellular transport for 30 min at 15° C. Movement of FC label to the cell surface remained negligible (FIG. 11). The cells were brought to 31° C. for 15 min, and then cooled on wet ice. ^3 H-FC transfer to the cell surface (in the presence and absence of inhibitor) was assayed with cholesterol oxidase as described above."}, "[3]": {"tested_on": "LDL FC uptake by fibroblast monolayers", "assay": "Effects of metabolic inhibitors on uptake of 3H-cholesterol from LDL (Example 1)"}, "fibroblast monolayers": {"tested_on": "fibroblast monolayers", "assay": "FC efflux from fibroblast monolayers (3H-FC label)", "type": "cell-based, human", "settings": "in words", "description": "Fibroblast monolayers were equilibrated with ^3 H-FC-labeled native plasma or with isolated ^3 H-labeled LDL, as specified for each experiment. Following incubation, the dishes were washed with albumin-complete PBS and then (×4) with complete PBS. They were then incubated for 3 min with unlabeled plasma or lipoprotein fractions and the rate of appearance of radioactivity in the medium determined. Samples of medium ([…]) were immediately chilled in ice water and centrifuged (10 min, 2000×g) at 0-2° C. ^3 H-cholesterol radioactivity in the supernatant was either assayed directly, or fractionated by agarose gel electrophoresis. FC efflux was linear as previously reported (Kawano et al., Biochemistry, 32: 5025-5028 (1993)).\nFor electrophoresis, […] portions of labeled medium were added to strips of 0.75% w/v agarose in 0.025 M barbital buffer (pH 8.6) and separated as previously described (Fielding et al., Biochemistry, 30: 8551-8557 (1991)). 2.5 mm gel fractions were then collected, and radioactivity measured. The location of major lipoprotein classes was determined from strips run simultaneously with whole native plasma equilibrated (60 min, 37° C.) With ^3 HFC.\nRates of FC influx and efflux between medium and fibroblast monolayers preincubated for 24 h with 7-80% native human plasma in DMEM were determined. Cells equilibrated in 80% compared to 7% v/v plasma contained 35-40% more total cholesterol but only 10-15% more FC. In 50% v/v plasma, cholesteryl ester levels were lower than in 80% plasma but FC levels were almost the same. Rates of transfer of FC between the cells and their extracellular medium were determined for each plasma dilution. […] was measured as the rate of transfer of ^3 H-FC radioactivity from labeled native plasma to unlabeled cells. […] was determined as the rate of transfer of radioactivity from uniformly labeled cells to unlabeled native plasma medium."}, "[4]": {"tested_on": "LDL-receptor deficient cells (GM 2000 line)", "assay": "FC transfer from LDL to LDL receptor-deficient cells (GM 2000)", "type": "cell-based"}, "fibroblasts": {"tested_on": "fibroblasts", "settings": "cited from earlier work"}, "[5]": {"tested_on": "LDL FC uptake by fibroblast monolayers", "settings": "for effect on LDL FC uptake: in words"}, "[6]": {"tested_on": "LDL FC uptake by fibroblast monolayers", "assay": "Transfer of LDL-derived 3H-FC into fibroblast monolayers with metabolic inhibitors (Example 2)", "type": "cell-based, human"}}, "data": [{"compound": "C[C@@]1(CO)[C@H](O)CC[C@@]2(C)[C@H]1CC[C@H]1C[C@@H]3C[C@@]12CC[C@]3(O)CO", "note": "[aphidicolin]", "values": [{"measurement": "cells synchronized to enter S-phase", "setting": "[1]; Example 4, following removal of inhibitor", "result": "~ 85%"}, {"measurement": "cells in synchrony at the beginning of S phase", "setting": "[1]; Example 5, 4 then 8 μg/ml aphidicolin", "result": "83.9±3.1", "unit": "%"}]}, {"compound": "O=[N+]([O-])[O-].[K+]", "note": "[KNO3]", "values": [{"measurement": "effect on transport of intracellular 3H-FC to the cell surface", "setting": "[2]", "result": "inhibited the return of FC to the cell surface, but less effectively than did nocodazole"}, {"measurement": "inhibition of the uptake of free cholesterol from LDLs", "setting": "[3]; FIG. 8", "result": "> 80", "unit": "%"}, {"measurement": "time course of inhibition of LDL FC uptake", "setting": "[3]; NEM: first 10-15 min, KNO3: 50 mM, data not shown", "result": "comparable time course"}, {"measurement": "initial rate of efflux of FC from prelabeled cells to plasma", "setting": "fibroblast monolayers", "result": "increased several-fold"}]}, {"compound": "heparin", "values": [{"measurement": "inhibition of LDL FC influx", "setting": "[4]; GM 2000 cells, 0.1 mg/ml heparin, LDL 150 Fg FC ml^-1, 10 min", "result": "Approximately 80%"}, {"measurement": "inhibition of LDL FC influx", "setting": "[3]; normal fibroblasts, 0.1 mg/ml heparin, LDL 150 Fg FC ml^-1, 10 min", "result": "Approximately 80%"}]}, {"compound": "C=C[C@@]1(C)CC(=O)[C@]2(O)[C@@]3(C)[C@@H](O)CCC(C)(C)[C@@H]3[C@H](O)[C@H](OC(C)=O)[C@@]2(C)O1", "note": "[Forskolin]", "values": [{"measurement": "effect on transfer of newly-synthesized cholesterol to plasma membrane", "setting": "fibroblasts", "result": "stimulated"}, {"measurement": "effect on LDL FC uptake", "setting": "[5]", "result": "no effect"}]}, {"compound": "CC[C@@]1([C@@H]2O[C@@H]([C@H]3O[C@@](O)(CO)[C@H](C)C[C@@H]3C)C[C@@H]2C)CC[C@H]([C@]2(C)CC[C@]3(C[C@H](O)[C@@H](C)[C@@H]([C@@H](C)[C@@H](OC)[C@H](C)C(=O)O)O3)O2)O1", "note": "[Monensin]", "values": [{"measurement": "inhibition at higher concentration", "setting": "[6]; 100 mM (monensin: up to 100 mM)", "result": "no increase in inhibition"}, {"measurement": "effect on uptake of 3H-FC from LDL", "setting": "[6]; brefeldin A, vinblastine, taxol, nocodazole, NEM 2 mM", "result": "effective in reducing the selective uptake of FC from LDL"}, {"measurement": "effect on selective uptake of FC from LDL in GM2000 cells", "setting": "[4]; in words", "result": "Comparable results"}]}, {"compound": "CC(C)Cn1c(=O)n(C)c(=O)c2[nH]cnc21", "note": "[IBMX, isobutyl methylxanthine]", "values": [{"measurement": "effect on transfer of newly-synthesized cholesterol to plasma membrane", "setting": "fibroblasts", "result": "stimulated"}, {"measurement": "activity", "setting": "[5]; fibroblast monolayers, 60 min", "result": 111, "unit": "%"}, {"measurement": "effect on LDL FC uptake", "setting": "[5]", "result": "no effect"}]}]}
